Measurements taken from patent US9260376B2, “Compounds for use in the treatment of immune related inflammatory disease” (VENANTIUS LIMITED, priority 2011, dated 2016).

Tested on: IL2 release from Jurkat cells (T cell line Jurkat 6.1)
Assay: Effect of compounds on IL-2 secretion in T lymphocytes (anti-CD3/anti-CD28 stimulated, ELISA)
Assay type: cell-based
Settings: control inhibitors; plates 2 and 3
Description: The T cell line Jurkat 6.1 (ATCC) was used. Cells were pre-treated for 30 min with 1 μM or 10 μM of the respective compound and then stimulated with plate-bound anti-CD3 (BD Pharmingen) and anti-CD28 (AnCell). DMSO was used as vehicle control. […] After 24 hs the supernatant was collected and IL-2 secretion was measured by ELISA.
Compounds were prepared by dissolution in DMSO to yield final concentrations of 1 and 10 μg/ml

CN[C@@H]1C[C@H]2O[C@@](C)([C@@H]1OC)n1c3ccccc3c3c4c(c5c6ccccc6n2c5c31)C(=O)NC4 [Stauros]
IL-2 pg/ml: 117.75 pg/mL
